Like-named read-outs stand apart in the source and are kept apart here. Blank lines part the entries; values can stand above or below the compound they belong to.
Legend:
[1] = assay type: physicochemical
[2] = 2-13C uracil concentration in plasma of patients suspected of post-operative gastroparesis; assay type: in vivo, human; conditions: 20 minutes after oral 100 mg 2-13C uracil (Example 2 granules); patients with decreased or insufficient gastric-emptying function versus normal type
[3] = test system: gastric-emptying function; test: 13C breath test in delayed gastric-emptying model rats (propantheline pretreatment); assay type: in vivo, rat; conditions: propantheline 1 mg/kg i.v. 5 min before 10 mg/kg oral 2-13C uracil; expired air 5-60 min
Method: “Propantheline”, an anticholinergic agent, was intravenously administered to rats (female, Wister rat, 8 weeks old: n=3) in such an amount of 1 mg/kg to obtain model animals whose gastric-emptying function was decreased (a delayed gastric-emptying model). […] The expired air samples were collected over time, and the ^13CO2 concentration in each expired air sample was measured.

- Solubility ([1]; pH 2): 0.28 w/v %
- Solubility ([1]; pH 4): 0.28 w/v %
- Solubility ([1]; pH 6): 0.28 w/v %
- Solubility ([1]; pH 8): 0.29 w/v %
- 2-13C uracil concentrations in plasma [2]: lowered
Structure (SMILES): O=c1cc[nH][13c](=O)[nH]1 [2-^13C uracil]

Structure (SMILES): CC(C)[N+](C)(CCOC(=O)C1c2ccccc2Oc2ccccc21)C(C)C [propantheline, Propantheline]
- 13CO2 concentration (Δ13C value) excreted in expired air versus normal rats [3]: significantly lower

- change of solubility depending on the pH of the solution ([1]; pH 2): almost unchanged
Structure (SMILES): O=c1cc[nH]c(=O)[nH]1 [uracil]
